From US8461328B2, “Tricyclic heterocyclic compounds, compositions and methods of use thereof” (Genentech, Inc., priority 2010, dated 2013)
pKi: −log10 of the molar value.

How the values were obtained:
Assay type in all cases: biochemical
[1] = target: T1, JAK3 (Homo sapiens, UniProt P52333); experiment: JAK3 inhibition (Table 4); settings: read-out: JAK3 Ki
T1 construct: made in house; host or cells: SF9 insect cells (baculovirus)

[2] = target: T2, JAK2 (Homo sapiens, UniProt O60674); experiment: JAK2 inhibition (Table 4); settings: read-out: JAK2 Ki
T2 construct: made in house; host or cells: SF9 insect cells (baculovirus)

[3] = target: T3, TYK2 (Homo sapiens, UniProt P29597); experiment: TYK2 inhibition (Table 4)
T3 construct: made in house; host or cells: SF9 insect cells (baculovirus)
T3 sequence (P29597 873-1187): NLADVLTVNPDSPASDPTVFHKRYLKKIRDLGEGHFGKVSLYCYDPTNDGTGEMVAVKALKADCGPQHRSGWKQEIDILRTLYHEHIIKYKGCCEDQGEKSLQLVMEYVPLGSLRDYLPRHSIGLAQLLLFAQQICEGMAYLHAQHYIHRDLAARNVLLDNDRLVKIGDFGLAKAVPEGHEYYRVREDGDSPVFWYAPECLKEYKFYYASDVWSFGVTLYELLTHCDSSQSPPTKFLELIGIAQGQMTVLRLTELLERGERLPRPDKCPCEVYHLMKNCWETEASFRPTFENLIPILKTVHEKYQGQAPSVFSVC

[4] = target: T4, JAK1 (Homo sapiens, UniProt P23458); experiment: JAK1 inhibition (Table 4); settings: read-out: JAK1 Ki
T4 construct: made in house; host or cells: SF9 insect cells (baculovirus)
T4 sequence (P23458 852-1154): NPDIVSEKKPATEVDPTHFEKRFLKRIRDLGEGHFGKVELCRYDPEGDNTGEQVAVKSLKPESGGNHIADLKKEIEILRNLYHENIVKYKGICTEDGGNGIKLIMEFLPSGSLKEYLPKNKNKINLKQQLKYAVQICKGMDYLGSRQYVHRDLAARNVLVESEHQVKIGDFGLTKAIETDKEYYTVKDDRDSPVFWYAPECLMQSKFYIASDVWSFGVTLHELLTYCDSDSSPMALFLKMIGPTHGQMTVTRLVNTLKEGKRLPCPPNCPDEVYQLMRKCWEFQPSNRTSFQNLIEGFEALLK

T2 sequence (O60674 812-1132): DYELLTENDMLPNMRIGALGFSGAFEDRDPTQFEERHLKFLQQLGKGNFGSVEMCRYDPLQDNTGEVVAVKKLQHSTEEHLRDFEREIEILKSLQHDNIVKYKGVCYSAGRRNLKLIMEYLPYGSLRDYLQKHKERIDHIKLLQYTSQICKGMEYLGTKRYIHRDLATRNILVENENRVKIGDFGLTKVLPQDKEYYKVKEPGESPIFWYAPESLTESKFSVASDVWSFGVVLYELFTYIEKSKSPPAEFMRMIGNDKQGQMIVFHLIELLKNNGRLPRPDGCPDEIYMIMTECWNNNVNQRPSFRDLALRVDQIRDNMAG
T1 sequence (P52333 783-1124): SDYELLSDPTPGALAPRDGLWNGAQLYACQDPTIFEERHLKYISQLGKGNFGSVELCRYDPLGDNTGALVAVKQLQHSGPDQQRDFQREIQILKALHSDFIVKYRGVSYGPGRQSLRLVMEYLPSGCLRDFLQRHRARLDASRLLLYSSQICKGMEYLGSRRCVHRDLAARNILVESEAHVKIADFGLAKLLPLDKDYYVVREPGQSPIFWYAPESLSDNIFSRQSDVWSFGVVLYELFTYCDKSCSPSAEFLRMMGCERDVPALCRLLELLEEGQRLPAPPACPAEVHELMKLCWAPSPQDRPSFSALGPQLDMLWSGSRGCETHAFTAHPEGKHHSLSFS

SMILES	pKi [1]	pKi [2]	pKi [3]	pKi [4]
CCS(=O)(=O)N1CCC(C)(n2cnc3cnc4[nH]ccc4c32)CC1 [Example 757, 1-(1-Ethanesulfonyl-4-methyl-piperidin-4-yl)-1,6-dihydro-1,3,5,6-tetraaza-as-indacene]	7.08	8.00	7.47	8.69
Cc1nc2cnc3[nH]ccc3c2n1C1(C)CCN(Cc2ccnc(C#N)c2)CC1 [Example 758, 4-[4-Methyl-4-(2-methyl-6H-1,3,5,6-tetraaza-as-indacen-1-yl)-piperidin-1-ylmethyl]-pyridine-2-carbonitrile]	6.22	6.69	6.00	7.39
COCCN(C)C(=O)NC1CCC(n2cnc3cnc4[nH]ccc4c32)CC1 (stereo not shown) [Example 763, 1-(2-Methoxy-ethyl)-1-methyl-3-[4-(6H-1,3,5,6-tetraaza-as-indacen-1-yl)-cyclohexyl]-urea]	6.56	7.37	6.65	7.90
O=S1(=O)CCN(C2CCC(n3cnc4cnc5[nH]ccc5c43)CC2)CC1 (stereo not shown) [Example 766, 1-[4-(1,1-Dioxo-thiomorpholin-4-yl)-cyclohexyl]-1,6-dihydro-1,3,5,6-tetraaza-as-indacene]	7.16	8.51	7.68	9.01
Cc1nc2cnc3[nH]ccc3c2n1C1CCC(N2CCC(F)(F)CC2)CC1 (stereo not shown) [Example 767, 1-[4-(4,4-Difluoro-piperidin-1-yl)-cyclohexyl]-2-methyl-1,6-dihydro-1,3,5,6-tetraaza-as-indacene]	6.81	7.97	7.43	8.55
Cc1nc2cnc3[nH]ccc3c2n1C1CCC(N2CCC(C#N)CC2)CC1 (stereo not shown) [Example 768, 1-[4-(2-Methyl-6H-1,3,5,6-tetraaza-as-indacen-1-yl)-cyclohexyl]-piperidine-4-carbonitrile]	7.07	8.19	7.63	8.75
CNC(=O)OC1CCC(n2cnc3cnc4[nH]ccc4c32)CC1 (stereo not shown) [Example 769, Methyl-carbamic acid 4-(6H-1,3,5,6-tetraaza-as-indacen-1-yl)-cyclohexyl ester]	6.98	7.78	7.20	8.02
COCCNc1nc2cnc3[nH]ccc3c2n1C1CCN(CCC#N)CC1 [Example 770, 3-{4-[2-(2-Methoxy-ethylamino)-6H-1,3,5,6-tetraaza-as-indacen-1-yl]-piperidin-1-yl}-propionitrile]	7.37	7.49	6.68	8.06
CNc1nc2cnc3[nH]ccc3c2n1C1CCN(Cc2cccc(C#N)c2)CC1 [Example 772, 3-[4-(2-Methylamino-6H-1,3,56-tetraaza-as-indacen-1-yl)-piperidine-1-yl-methyl]-benzonitrile]	7.36	8.24	6.49	8.87
CNc1nc2cnc3[nH]ccc3c2n1C1CCCOC1 (stereo not shown) [Example 773, Methyl-[1-(tetrahydro-pyran-3-yl)-1,6-dihydro-1,3,5,6-tetraaza-as-indacen-2-yl]-amine]	6.90	7.09	6.83	7.91
CNc1nc2cnc3[nH]ccc3c2n1C1CCN(S(C)(=O)=O)CC1 [Example 774, [1-(1-Methanesulfonyl-piperidin-4-yl) 1,6-dihydro-1,3,5,6-tetraaza-as-indacen-1-yl]-methyl-amine]	6.62	7.08	6.85	7.39
C[C@@H](O)c1nc2cnc3[nH]ccc3c2n1C1CCC(C#N)CC1 (stereo partly drawn) [Example 776, 4-[2-((R)-1-Hydroxy-ethyl)-6H-1,3,5,6-tetraaza-as-indacen-1-yl]-cyclohexanecarbonitrile]	8.73	7.98	9.14	9.00
C[C@@H](O)c1nc2cnc3[nH]ccc3c2n1C1CCC(CCS(C)(=O)=O)CC1 (stereo partly drawn) [Example 778, (R)-1-{1-[4-(2-methanesulfonyl-ethyl)-cyclohexyl]-1,6-dihydro-1,3,5,6-tetraaza-as-indacen-2-yl}-ethanol]	7.37	7.88	8.16	9.19
C[C@@H](O)c1nc2cnc3[nH]ccc3c2n1C1CCC(n2cncn2)CC1 (stereo partly drawn) [Example 779, (R)-1-[1-(4-[1,2,4]triazol-1-yl-cyclohexyl)-1,6-dihydro-1,3,5,6-tetraaza-as-indacen-2-yl]-ethanol]	6.63	7.13	7.41	8.31
C[C@@H](O)c1nc2cnc3[nH]ccc3c2n1[C@@H]1CCCN(C(=O)C2CCOCC2)C1 [Example 783, {(R)-3-[2-((R)-1-Hydroxy-ethyl)-6H-1,3,5,6-tetraaza-as-indacen-1-yl]-piperidin-1-yl}-(tetrahydro-pyran-4-yl)-methanone]	5.58	5.83	5.75	6.86
CC(O)c1nc2cnc3[nH]ccc3c2n1C1CCCN(C(=O)C2CCOC2)C1 (stereo not shown) [Example 786, {3-[2-(1-Hydroxy-ethyl)-6H-1,3,5,6-tetraaza-as-indacen-1-yl]-piperidin-1-yl}-(tetrahydro-furan-3-yl)-methanone]	5.95	6.23	6.22	7.28
C[C@@H](O)c1nc2cnc3[nH]ccc3c2n1[C@@H]1CCCN(C(=O)C2CCCC2)C1 [Example 788, Cyclopentyl-{(R)-3-[2-((R)-1-hydroxy-ethyl)-6H-1,3,5,6-tetraaza-as-indacen-1-yl]-piperidin-1-yl}-methanone]	6.07	6.10	6.14	7.17
CC(O)c1nc2cnc3[nH]ccc3c2n1C1CCCN(C(=O)C2CC2(F)F)C1 (stereo not shown) [Example 790, (2,2-Difluoro-cyclopropyl)-{3-[2-(1-hydroxy-ethyl)-6H-1,3,5,6-tetraaza-as-indacen-1-yl]-piperidin-1-yl}-methanone]	6.05	6.13	6.23	7.10

The next lines start with the values.

pKi [1]	pKi [2]	pKi [3]	pKi [4]	SMILES
7.43	6.93	6.96	8.15	CC(O)c1nc2cnc3[nH]ccc3c2n1C1CCN(CCC(F)(F)F)CC1 (stereo not shown) [Example 759, 1-{1-[1-(3,3,3-Trifluoro-propyl)-piperidin-4-yl]-1,6-dihydro-1,3,5,6-tetraaza-as-indacen-2-yl}-ethanol]
7.66	7.64	7.60	8.46	OCc1nc2cnc3[nH]ccc3c2n1C1CCN(CCC(F)(F)F)CC1 [Example 760, {1-[1-(3,3,3-Trifluoro-propyl)-piperidin-4-yl]-1,6-dihydro-1,3,5,6-tetraaza-as-indacen-2-yl}-methanol]
7.65	8.07	8.00	8.80	OCc1nc2cnc3[nH]ccc3c2n1C1CCN(CC(F)(F)F)CC1 [Example 761, {1-[1-(2,2,2-Trifluoro-ethyl)-piperidin-4-yl]-1,6-dihydro-1,3,5,6-tetraaza-as-indacen-2-yl}-methanol]
8.26	8.58	8.31	9.05	Cc1nc2cnc3[nH]ccc3c2n1C1CCN(CC(F)F)CC1 [Example 762, 1-[1-(2,2-Difluoro-ethyl)-piperidin-4-yl]-2-methyl-1,6-dihydro-1,3,5,6-tetraaza-as-indacene]
6.22	6.36	6.07	7.06	Cc1nc2cnc3[nH]ccc3c2n1C1CCN(C(=O)NCC(F)(F)F)CC1 [Example 764, 4-(2-Methyl-6H-1,3,5,6-tetraaza-as-indacen-1-yl)-piperidine-1-carboxylic acid (2,2,2-trifluoro-ethyl)-amide]
5.66	6.06	5.55	6.56	Cc1nc2cnc3[nH]ccc3c2n1C1CCN(C(=O)NCCC(F)(F)F)CC1 [Example 765, 4-(2-Methyl-6H-1,3,5,6-tetraaza-as-indacen-1-yl)-piperidine-1-carboxylic acid (3,3,3-trifluoro-propyl)-amide]
7.72	8.18	7.56	8.69	CNc1nc2cnc3[nH]ccc3c2n1C1CCN(CCC#N)CC1 [Example 771, 3-[4-(2-Methylamino-6H-1,3,5,6 tetraaza-asindacen-1-yl)-piperidin-1-yl]-propionitrile]
8.98	8.16	9.19	8.89	N#CC1CCC(n2c(CO)nc3cnc4[nH]ccc4c32)CC1 (stereo not shown) [Example 777, 4-(2-Hydroxymethyl-6H-1,3,5,6-tetraaza-as-indacen-1-yl)-cyclohexanecarbonitrile]
5.53	5.83	5.52	6.54	C[C@H](O)c1nc2cnc3[nH]ccc3c2n1[C@@H]1CCCN(C(=O)CC(F)(F)F)C1 [Example 782, 3,3,3-Trifluoro-1-{(R)-3-[2-((S)-1-hydroxy-ethyl)-6H-1,3,5,6-tetraaza-as-indacen-1-yl]-piperidin-1-yl}-propan-1-one]
6.25	6.43	6.56	7.50	C[C@@H](O)c1nc2cnc3[nH]ccc3c2n1[C@@H]1CCCN(C(=O)CC(F)(F)F)C1 [Example 785, 3,3,3-Trifluoro-1-{(R)-3-[2-((R)-1-hydroxy-ethyl)-6H-1,3,5,6-tetraaza-as-indacen-1-yl]-piperidin-1-yl}-propan-1-one]
